Data set [1] deals with stage IVB ovarian cancer. Particulars: from July 2018, bicarbonate continued, before endoxan.
Data set [2] is described as follows: Change in pH of urine after citrate salt or sodium bicarbonate in a person with acidic urine (Example 1).
Protocol: A citrate salt was administered to a person with acidic urine in accordance with the following dosage regimen, and a change in pH value of urine was then measured over time.
(1) A potassium citrate•sodium citrate hydrate 500 mg tablet (Uralyt Tablet (manufactured by Nippon Chemiphar Co., Ltd.)) is administered at 6 tablets (3 g) once a day after a meal.
The mark [3] stands for this setting: 3 g once a day, compared to potassium citrate•sodium citrate hydrate.

Take `O=C([O-])O.[Na+]` [sodium salt of hydrogencarbonate ions, sodium bicarbonate]: the “value of CA125” value in data set [1] came out at 199. Further, the side effect observed result in data set [2] (3 g once a day after a meal) is “the patient often burped”. For the same compound, in data set [2] (setting [3]), the “rate of alkalization of urine” value is on record as “higher”, the “rate of urine turning acidic again” value is “higher” and the “time during which the urine was kept alkaline” value is “shorter”. Further, in data set [2] (person with acidic urine, 6 tablets (3 g) orally once a day after a meal), the “pH of urine / ability to keep the urine alkaline” value was “poorer ability to keep the urine alkaline”.

The values are drawn from US11246847B2, “Anticancer drug effect enhancer” (Delta-Fly Pharma, Inc., priority 2019, dated 2022).
